According to article PMC10535816, “May 1,2-Dithiolane-4-carboxylic Acid and Its Derivatives Serve as a Specific Thioredoxin Reductase 1 Inhibitor?” (Molecules, 2023):

target: T1, TrxR1 (thioredoxin reductase 1) (Rattus norvegicus, UniProt O89049); assay: biochemical
T1 construct: gene Txnrd1
T1 sequence (O89049 1-499): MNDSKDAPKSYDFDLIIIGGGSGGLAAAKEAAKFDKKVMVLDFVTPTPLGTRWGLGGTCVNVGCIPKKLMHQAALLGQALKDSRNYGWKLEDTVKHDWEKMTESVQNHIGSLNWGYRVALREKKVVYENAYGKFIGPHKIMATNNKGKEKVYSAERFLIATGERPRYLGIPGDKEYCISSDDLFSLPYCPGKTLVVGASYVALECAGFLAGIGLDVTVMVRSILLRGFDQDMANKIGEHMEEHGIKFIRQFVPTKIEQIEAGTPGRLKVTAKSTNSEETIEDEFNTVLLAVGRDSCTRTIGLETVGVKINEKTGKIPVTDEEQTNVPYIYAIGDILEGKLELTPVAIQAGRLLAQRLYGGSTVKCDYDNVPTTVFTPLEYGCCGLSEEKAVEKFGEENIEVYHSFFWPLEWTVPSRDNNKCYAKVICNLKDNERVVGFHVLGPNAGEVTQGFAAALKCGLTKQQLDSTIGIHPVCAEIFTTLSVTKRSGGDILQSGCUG

Row | IC50 | Structure (SMILES)
1 | 186 ± 14.9 µM | CC[C@H](C)[C@H](NC(=O)C1CSSC1)C(=O)O [2g, 2-(1,2-Dithiolane-4-carboxamido)-3-methylpentanoic acid]
2 | 5.3 ± 0.4 µM | O=C(Nc1cc2ccccc2oc1=O)C1CSSC1 [2j, N-(2-Oxo-2H-chromen-3-yl)-1,2-dithiolane-4-carboxamide]
3 | 36.3 ± 2.9 µM | O=C(Nc1ccc2oc(=O)ccc2c1)C1CSSC1 [2k, N-(2-oxo-2H-chromen-6-yl)-1,2-dithiolane-4-carboxamide]
